The test system of experiment [1] is Rattus norvegicus. Description: In vivo inhibition of diabetic rat sciatic nerve fructose accumulation. In kind it is functional.
The target in experiment [2] is T1, Sorbitol dehydrogenase (Homo sapiens, UniProt Q00796).
T1 sequence (Q00796 whole entry): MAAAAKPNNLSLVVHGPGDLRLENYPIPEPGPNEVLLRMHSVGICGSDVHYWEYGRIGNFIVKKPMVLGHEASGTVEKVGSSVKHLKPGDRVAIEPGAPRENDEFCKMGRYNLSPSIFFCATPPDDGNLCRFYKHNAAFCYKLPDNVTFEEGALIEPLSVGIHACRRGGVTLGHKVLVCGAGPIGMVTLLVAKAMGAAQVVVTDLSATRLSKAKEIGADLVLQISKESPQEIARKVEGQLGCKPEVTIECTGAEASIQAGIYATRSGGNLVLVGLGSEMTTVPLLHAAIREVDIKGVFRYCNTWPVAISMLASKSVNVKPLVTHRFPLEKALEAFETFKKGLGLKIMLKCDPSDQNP
Description: In vitro inhibitory activity against human SDH.

Our source for the ED50 and IC50 values is ChEMBL document CHEMBL1134443, “Sorbitol dehydrogenase inhibitors (SDIs): a new potent, enantiomeric SDI, 4-[2-1R-hydroxy-ethyl)-pyrimidin-4-yl]piperazine-1-sulfonic acid dimethylamide” (J Med Chem, 2001).

Compound `CO[C@@H](C)c1nccc(N2CCN(S(=O)(=O)N(C)C)CC2)n1` gave an ED50 in experiment [1] of 9 mg/kg. The same compound displayed an IC50 in experiment [2] of 486 nM.
The matching figures for `C[C@@H](O)c1nccc(N2CCN(S(=O)(=O)N(C)C)CC2)n1`: 1.6 mg/kg and 27 nM.
On the same counts, the results for `CN(C)S(=O)(=O)N1CCN(c2ccnc(CO)n2)CC1` are 14.1 mg/kg and 246 nM.
On to `CC(O)c1nccc(N2CCN(S(=O)(=O)N(C)C)CC2)n1` (stereo not drawn), for which it took a dose of 2.4 mg/kg to reach the 50% effect level in experiment [1] (ED50). The same compound displayed an IC50 in experiment [2] of 173 nM.
